# How the values were obtained:
# Assay type in all cases: in vivo
# [1] = tested on: Amaranthus retroflexus; assay: Test Example 5: herbicidal effect by foliage application, plastic box (symbol N); details: 320 g/ha, 3 weeks after application
# In short: (§1)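 Seeds were sown in sterilized diluvial soil, covered with about 1.5 cm of soil and grown 14 days in a greenhouse at 25° C. to 30° C. An emulsifiable formulation diluted in water to a set rate was sprayed over foliage, and injury was scored 3 weeks later.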
# [2] = tested on: wheat; assay: Test Example 4: effect on crop by soil treatment (symbol e); details: application herbicide amount 320 g/ha
# Excerpt: (§2) Herbicidal Effect Test by Soil Treatment
# (§3) Sterilized diluvial soil was placed in a plastic box having a length of 21 cm, a width of 13 cm, and a depth of 7 cm. Each of the seeds of Digitaria ciliaris, Setaria viridis, Echinochloa crus-galli var. crus-galli, Avena fatua, Alopecurus myosuroides, Lolium multiflorum Lam., Apera spica-venti, Abutilon theophrasti, Amaranthus retroflexus, Chenopodium album, Stellaria media, Galium spurium, Veronica persica, corn, soybean, rice, wheat, beet, and rapeseed was sowed in a spot-like manner and was covered with the soil of a thickness of about 1.5 cm. […] The plastic box was placed in a greenhouse of 25° C. to 30° C. to grow plant.
# [3] = tested on: beet; assay: Test Example 4: effect on crop by soil treatment (symbol f); details: application herbicide amount 320 g/ha
# Excerpt: as §2, §3
# [4] = tested on: soybean; assay: Test Example 4: effect on crop by soil treatment (symbol d); details: application herbicide amount 320 g/ha
# Excerpt: as §2, §3
# [5] = tested on: Setaria viridis; assay: Test Example 4: herbicidal effect by soil treatment (symbol G); details: application herbicide amount 320 g/ha
# Excerpt: as §2
# (§4) Sterilized diluvial soil was placed in a plastic box having a length of 21 cm, a width of 13 cm, and a depth of 7 cm. Each of the seeds of Digitaria ciliaris, Setaria viridis, Echinochloa crus-galli var. crus-galli, Avena fatua, Alopecurus myosuroides, Lolium multiflorum Lam., Apera spica-venti, Abutilon theophrasti, Amaranthus retroflexus, Chenopodium album, Stellaria media, Galium spurium, Veronica persica, corn, soybean, rice, wheat, beet, and rapeseed was sowed in a spot-like manner and was covered with the soil of a thickness of about 1.5 cm. Subsequently, the emulsion agent of the compound present invention prepared in accordance with Formulation Example 2 was diluted with water so as to be a predetermined herbicide amount and the diluted emulsion agent was uniformly applied to the surface of the soil with a small-size spray. The plastic box was placed in a greenhouse of 25° C. to 30° C. to grow plant. 3 weeks later from the herbicide application, the effect to each plant was investigated in accordance with the criteria of Test Example 1.
# [6] = tested on: Apera spica-venti; assay: Test Example 5: herbicidal effect by foliage application, plastic box (symbol L); details: 320 g/ha, 3 weeks after application
# In short: as §1
# [7] = tested on: Veronica persica; assay: Test Example 4: herbicidal effect by soil treatment (symbol R); details: application herbicide amount 320 g/ha
# Excerpt: as §2, §4
# [8] = tested on: Galium spurium; assay: Test Example 5: herbicidal effect by foliage application, plastic box (symbol Q); details: 320 g/ha, 3 weeks after application
# In short: as §1
# [9] = tested on: wheat; assay: Test Example 5: effect on crop by foliage application, plastic box (symbol e); details: 320 g/ha, 3 weeks after application
# In short: (§5)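 Foliage-application test plants come from spot sowing in sterilized diluvial soil under a soil layer of about 1.5 cm, grown at 25° C. to 30° C. in a greenhouse.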
# [10] = tested on: Veronica persica; assay: Test Example 5: herbicidal effect by foliage application, plastic box (symbol R); details: 320 g/ha, 3 weeks after application
# In short: as §1
# [11] = tested on: Echinochloa crus-galli var. crus-galli; assay: Test Example 4: herbicidal effect by soil treatment (symbol H); details: application herbicide amount 320 g/ha
# Excerpt: as §2, §4
# [12] = tested on: Alopecurus myosuroides; assay: Test Example 4: herbicidal effect by soil treatment (symbol J); details: application herbicide amount 320 g/ha
# Excerpt: as §2, §4
# [13] = tested on: Avena fatua; assay: Test Example 5: herbicidal effect by foliage application, plastic box (symbol I); details: 320 g/ha, 3 weeks after application
# In short: as §1
# [14] = tested on: Amaranthus retroflexus; assay: Test Example 4: herbicidal effect by soil treatment (symbol N); details: application herbicide amount 320 g/ha
# Excerpt: as §2, §4
# [15] = tested on: soybean; assay: Test Example 5: effect on crop by foliage application, plastic box (symbol d); details: 320 g/ha, 3 weeks after application
# In short: as §5
# [16] = tested on: Cyperus difformis; assay: Test Example 3: herbicidal effect by foliage application, Wagner pot (symbol E); details: application herbicide amount 320 g/ha
# In short: (§6)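 In a shallow-flooded alluvial soil system held at 25–30 °C, plants including rice grew for 14 days and were then sprayed over the foliage with emulsion diluted to a fixed herbicide amount. Visual rating followed at 3 weeks.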
# [17] = tested on: Alopecurus myosuroides; assay: Test Example 5: herbicidal effect by foliage application, plastic box (symbol J); details: 320 g/ha, 3 weeks after application
# In short: as §1
# [18] = tested on: Echinochloa crus-galli var. crus-galli; assay: Test Example 3: herbicidal effect by foliage application, Wagner pot (symbol H); details: application herbicide amount 320 g/ha
# In short: as §6
# [19] = tested on: Setaria viridis; assay: Test Example 5: herbicidal effect by foliage application, plastic box (symbol G); details: 320 g/ha, 3 weeks after application
# In short: as §1
# [20] = tested on: rapeseed; assay: Test Example 5: effect on crop by foliage application, plastic box (symbol g); details: 320 g/ha, 3 weeks after application
# In short: as §5
# [21] = tested on: Digitaria ciliaris; assay: Test Example 5: herbicidal effect by foliage application, plastic box (symbol F); details: 320 g/ha, 3 weeks after application
# In short: as §1
# [22] = tested on: Abutilon theophrasti; assay: Test Example 4: herbicidal effect by soil treatment (symbol M); details: application herbicide amount 320 g/ha
# Excerpt: as §2, §4
# [23] = tested on: Digitaria ciliaris; assay: Test Example 4: herbicidal effect by soil treatment (symbol F); details: application herbicide amount 320 g/ha
# Excerpt: as §2, §4
# [24] = tested on: Stellaria media; assay: Test Example 4: herbicidal effect by soil treatment (symbol P); details: application herbicide amount 320 g/ha
# Excerpt: as §2, §4
# [25] = tested on: rice; assay: Test Example 4: effect on crop by soil treatment (symbol b); details: application herbicide amount 320 g/ha
# Excerpt: as §2, §3
# [26] = tested on: Apera spica-venti; assay: Test Example 4: herbicidal effect by soil treatment (symbol L); details: application herbicide amount 320 g/ha
# Excerpt: as §2, §4
# [27] = tested on: Lolium multiflorum Lam.; assay: Test Example 4: herbicidal effect by soil treatment (symbol K); details: application herbicide amount 320 g/ha
# Excerpt: as §2, §4
# [28] = tested on: directly sowed rice plant; assay: Test Example 3: effect on crop by foliage application, Wagner pot (symbol b); details: application herbicide amount 320 g/ha
# In short: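 Alluvial soil in a 1/10000-are Wagner pot was flooded to a water depth of 0.1–0.5 cm. Echinochloa crus-galli var. crus-galli, Leptochloa chinensis, Cyperus difformis and rice were sown into it and grown in a greenhouse at 25–30 °C.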
# [29] = tested on: Avena fatua; assay: Test Example 4: herbicidal effect by soil treatment (symbol I); details: application herbicide amount 320 g/ha
# Excerpt: as §2, §4
# [30] = tested on: Lolium multiflorum Lam.; assay: Test Example 5: herbicidal effect by foliage application, plastic box (symbol K); details: 320 g/ha, 3 weeks after application
# In short: as §1
# [31] = tested on: beet; assay: Test Example 5: effect on crop by foliage application, plastic box (symbol f); details: 320 g/ha, 3 weeks after application
# In short: as §5
# [32] = tested on: rice plant; assay: Test Example 5: effect on crop by foliage application, plastic box (symbol b); details: 320 g/ha, 3 weeks after application
# In short: as §5
# [33] = tested on: Stellaria media; assay: Test Example 5: herbicidal effect by foliage application, plastic box (symbol P); details: 320 g/ha, 3 weeks after application
# In short: as §1
# [34] = tested on: Echinochloa crus-galli var. crus-galli; assay: Test Example 5: herbicidal effect by foliage application, plastic box (symbol H); details: 320 g/ha, 3 weeks after application
# In short: as §1
# [35] = tested on: Abutilon theophrasti; assay: Test Example 5: herbicidal effect by foliage application, plastic box (symbol M); details: 320 g/ha, 3 weeks after application
# In short: as §1
# [36] = tested on: corn; assay: Test Example 4: effect on crop by soil treatment (symbol c); details: application herbicide amount 320 g/ha
# Excerpt: as §2, §3
# [37] = tested on: rapeseed; assay: Test Example 4: effect on crop by soil treatment (symbol g); details: application herbicide amount 320 g/ha
# Excerpt: as §2, §3
# [38] = tested on: Leptochloa chinensis; assay: Test Example 3: herbicidal effect by foliage application, Wagner pot (symbol D); details: application herbicide amount 320 g/ha
# In short: as §6
# [39] = tested on: corn; assay: Test Example 5: effect on crop by foliage application, plastic box (symbol c); details: 320 g/ha, 3 weeks after application
# In short: as §5
structure (smiles),measurement,setting,value
CCOC(=O)C(C(=O)C1CCCC1)C1CC(O)=C(c2c(C)cc(C)cc2C)C1=O (stereo not drawn) [2-027],"N: Amaranthus retroflexus, herbicidal effect grade",[1],0 (Herbicidal ratio of 5% or lower (almost no effect))
same,"e: wheat, effect on crop grade",[2],0 (Herbicidal ratio of 5% or lower (almost no effect))
same,"f: beet, effect on crop grade",[3],0 (Herbicidal ratio of 5% or lower (almost no effect))
same,"d: soybean, effect on crop grade",[4],0 (Herbicidal ratio of 5% or lower (almost no effect))
same,"G: Setaria viridis, herbicidal effect grade",[5],5 (Herbicidal ratio of 90% or more (almost completely withered))
same,"L: Apera spica-venti, herbicidal effect grade",[6],0 (Herbicidal ratio of 5% or lower (almost no effect))
same,"R: Veronica persica, herbicidal effect grade",[7],0 (Herbicidal ratio of 5% or lower (almost no effect))
same,"Q: Galium spurium, herbicidal effect grade",[8],0 (Herbicidal ratio of 5% or lower (almost no effect))
same,"e: wheat, effect on crop grade",[9],0 (Herbicidal ratio of 5% or lower (almost no effect))
same,"R: Veronica persica, herbicidal effect grade",[10],0 (Herbicidal ratio of 5% or lower (almost no effect))
same,"H: Echinochloa crus-galli var. crus-galli, herbicidal effect grade",[11],3 (Herbicidal ratio of 40% or higher and lower than 70%)
same,"J: Alopecurus myosuroides, herbicidal effect grade",[12],1 (Herbicidal ratio of 5% or higher and lower than 20%)
same,"I: Avena fatua, herbicidal effect grade",[13],1 (Herbicidal ratio of 5% or higher and lower than 20%)
same,"N: Amaranthus retroflexus, herbicidal effect grade",[14],0 (Herbicidal ratio of 5% or lower (almost no effect))
same,"d: soybean, effect on crop grade",[15],0 (Herbicidal ratio of 5% or lower (almost no effect))
same,"herbicidal effect on E, grade 0-5",[16],0 (Herbicidal ratio of 5% or lower (almost no effect))
same,"J: Alopecurus myosuroides, herbicidal effect grade",[17],2 (Herbicidal ratio of 20% or higher and lower than 40%)
same,"herbicidal effect on H (Echinochloa crus-galli var. crus-galli), grade 0-5",[18],3 (Herbicidal ratio of 40% or higher and lower than 70%)
same,"G: Setaria viridis, herbicidal effect grade",[19],5 (Herbicidal ratio of 90% or more (almost completely withered))
same,"g: rapeseed, effect on crop grade",[20],1 (Herbicidal ratio of 5% or higher and lower than 20%)
same,"F: Digitaria ciliaris, herbicidal effect grade",[21],0 (Herbicidal ratio of 5% or lower (almost no effect))
same,"M: Abutilon theophrasti, herbicidal effect grade",[22],0 (Herbicidal ratio of 5% or lower (almost no effect))
same,"F: Digitaria ciliaris, herbicidal effect grade",[23],3 (Herbicidal ratio of 40% or higher and lower than 70%)
same,"P: Stellaria media, herbicidal effect grade",[24],0 (Herbicidal ratio of 5% or lower (almost no effect))
same,"b: directly sowed rice plant, effect on crop grade",[25],4 (Herbicidal ratio of 70% or higher and lower than 90%)
same,"L: Apera spica-venti, herbicidal effect grade",[26],0 (Herbicidal ratio of 5% or lower (almost no effect))
same,"K: Lolium multiflorum Lam., herbicidal effect grade",[27],2 (Herbicidal ratio of 20% or higher and lower than 40%)
same,"effect on crop b (directly sowed rice plant), grade 0-5",[28],5 (Herbicidal ratio of 90% or more (almost completely withered))
same,"I: Avena fatua, herbicidal effect grade",[29],0 (Herbicidal ratio of 5% or lower (almost no effect))
same,"K: Lolium multiflorum Lam., herbicidal effect grade",[30],4 (Herbicidal ratio of 70% or higher and lower than 90%)
same,"f: beet, effect on crop grade",[31],0 (Herbicidal ratio of 5% or lower (almost no effect))
same,"b: directly sowed rice plant, effect on crop grade",[32],4 (Herbicidal ratio of 70% or higher and lower than 90%)
same,"P: Stellaria media, herbicidal effect grade",[33],0 (Herbicidal ratio of 5% or lower (almost no effect))
same,"H: Echinochloa crus-galli var. crus-galli, herbicidal effect grade",[34],3 (Herbicidal ratio of 40% or higher and lower than 70%)
same,"M: Abutilon theophrasti, herbicidal effect grade",[35],0 (Herbicidal ratio of 5% or lower (almost no effect))
same,"c: corn, effect on crop grade",[36],1 (Herbicidal ratio of 5% or higher and lower than 20%)
same,"g: rapeseed, effect on crop grade",[37],0 (Herbicidal ratio of 5% or lower (almost no effect))
same,"herbicidal effect on D (Leptochloa chinensis), grade 0-5",[38],0 (Herbicidal ratio of 5% or lower (almost no effect))
same,"c: corn, effect on crop grade",[39],1 (Herbicidal ratio of 5% or higher and lower than 20%)
